Like-named read-outs stand apart in the source and are kept apart here.
Experiments:
[1] = tested on: Key Broadleaf Weed and Crop Species; assay: Post-emergent Test II herbicidal activity (Table 15); assay type: in vivo; conditions: post-emergence, 336 h, 14 d; for pest or weed control at 35 g/ha: 35 g ai/ha; for pest or weed control at 70 g/ha: 70 g ai/ha; for pest or weed control at 140 g/ha: 140 g ai/ha
Summary of the method: (§1)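 Plants at first-second true leaf stage, grown 7-21 d in greenhouse (~15 h photoperiod, 23-29 °C day), were track-sprayed at 187 L/ha with compound in acetone/DMSO/water/isopropanol/crop oil/Triton X-155 at a high rate plus 1/2× to 1/16× dilutions. Injury scored visually after 14 d versus untreated plants, 0 (none) to 100% (complete kill).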

[2] = tested on: Key Grass and Sedge Weeds as well as Grass Crops; assay: Post-emergent Test II herbicidal activity (Table 16); assay type: in vivo; conditions: post-emergence, 336 h, 14 days after application; for pest or weed control at 35 g/ha: 35 g ai/ha; for pest or weed control at 70 g/ha: 70 g ai/ha; for pest or weed control at 140 g/ha: 140 g ai/ha
Summary of the method: as §1

[3] = Abutilon theophrasti, velvetleaf (Abutilon theophrasti), read-out: Visual Growth Reduction (%) 14 Days After Application, ABUTH
[4] = Amaranthus retroflexus, redroot pigweed (Amaranthus retroflexus), read-out: Visual Growth Reduction (%) 14 Days After Application, AMARE
[5] = Brassica napus, oilseed rape, canola (Brassica napus), read-out: Visual Growth Reduction (%) 14 Days After Application, BRSNN
[6] = Chenopodium album, lambsquarters (Chenopodium album), read-out: Visual Growth Reduction (%) 14 Days After Application, CHEAL
[7] = Euphorbia heterophylla, wild poinsettia (Euphorbia heterophylla), read-out: Visual Growth Reduction (%) 14 Days After Application, EPHHL
[8] = Helianthus annuus, sunflower (Helianthus annuus), read-out: Visual Growth Reduction (%) 14 Days After Application, HELAN
[9] = Cyperus esculentus, yellow nutsedge (Cyperus esculentus), read-out: Visual Growth Reduction (%) 14 Days After Application CYPES
[10] = Echinochloa crus-galli, barnyardgrass (Echinochloa crus-galli), read-out: Visual Growth Reduction (%) 14 Days After Application ECHCG
[11] = Oryza sativa, rice (Oryza sativa), read-out: Visual Growth Reduction (%) 14 Days After Application ORYSA
[12] = Setaria faberi, giant foxtail (Setaria faberi), read-out: Visual Growth Reduction (%) 14 Days After Application SETFA
[13] = Triticum aestivum, wheat, spring (Triticum aestivum), read-out: Visual Growth Reduction (%) 14 Days After Application TRZAS
[14] = Zea mays, maize, corn (Zea mays), read-out: Visual Growth Reduction (%) 14 Days After Application ZEAMX

COC(=O)c1nc(-c2cccc3ccsc23)c(F)c(N)c1Cl [Compound 3.24]
95 to 100%: pest or weed control at 140 g/ha [1, 4] | pest or weed control at 70 g/ha [1, 6] | pest or weed control at 140 g/ha [1, 6]
45 to 59%: pest or weed control at 35 g/ha [1, 5] | pest or weed control at 70 g/ha [1, 5] | pest or weed control at 140 g/ha [1, 5]
60 to 74%: pest or weed control at 35 g/ha [1, 8] | pest or weed control at 70 g/ha [1, 8]
85 to 94%: pest or weed control at 35 g/ha [1, 4] | pest or weed control at 70 g/ha [1, 4] | pest or weed control at 35 g/ha [1, 6] | pest or weed control at 140 g/ha [1, 8]
0 to 29%: pest or weed control at 35 g/ha [1, 3] | pest or weed control at 70 g/ha [1, 3] | pest or weed control at 140 g/ha [1, 3] | pest or weed control at 35 g/ha [1, 7] | pest or weed control at 70 g/ha [1, 7] | pest or weed control at 140 g/ha [1, 7] | pest or weed control at 35 g/ha [2, 9] | pest or weed control at 70 g/ha [2, 9] | pest or weed control at 140 g/ha [2, 9] | pest or weed control at 35 g/ha [2, 10] | pest or weed control at 70 g/ha [2, 10] | pest or weed control at 140 g/ha [2, 10] | pest or weed control at 35 g/ha [2, 11] | pest or weed control at 70 g/ha [2, 11] | pest or weed control at 140 g/ha [2, 11] | pest or weed control at 35 g/ha [2, 12] | pest or weed control at 70 g/ha [2, 12] | pest or weed control at 140 g/ha [2, 12] | pest or weed control at 35 g/ha [2, 13] | pest or weed control at 70 g/ha [2, 13] | pest or weed control at 140 g/ha [2, 13] | pest or weed control at 35 g/ha [2, 14] | pest or weed control at 70 g/ha [2, 14] | pest or weed control at 140 g/ha [2, 14]
121 to 123 °C: melting point

COC(=O)c1nc(-c2ccc3[nH]ncc3c2)c(F)c(N)c1Cl [Compound 4.01]
45 to 59%: pest or weed control at 70 g/ha [1, 4]
0 to 29%: pest or weed control at 35 g/ha [1, 3] | pest or weed control at 70 g/ha [1, 3] | pest or weed control at 140 g/ha [1, 3] | pest or weed control at 35 g/ha [1, 4] | pest or weed control at 35 g/ha [1, 5] | pest or weed control at 70 g/ha [1, 5] | pest or weed control at 140 g/ha [1, 5] | pest or weed control at 35 g/ha [1, 6] | pest or weed control at 35 g/ha [1, 7] | pest or weed control at 70 g/ha [1, 7] | pest or weed control at 140 g/ha [1, 7] | pest or weed control at 35 g/ha [1, 8] | pest or weed control at 70 g/ha [1, 8] | pest or weed control at 140 g/ha [1, 8] | pest or weed control at 35 g/ha [2, 9] | pest or weed control at 70 g/ha [2, 9] | pest or weed control at 140 g/ha [2, 9] | pest or weed control at 35 g/ha [2, 10] | pest or weed control at 70 g/ha [2, 10] | pest or weed control at 140 g/ha [2, 10] | pest or weed control at 35 g/ha [2, 11] | pest or weed control at 70 g/ha [2, 11] | pest or weed control at 140 g/ha [2, 11] | pest or weed control at 35 g/ha [2, 12] | pest or weed control at 70 g/ha [2, 12] | pest or weed control at 140 g/ha [2, 12] | pest or weed control at 35 g/ha [2, 13] | pest or weed control at 70 g/ha [2, 13] | pest or weed control at 140 g/ha [2, 13] | pest or weed control at 35 g/ha [2, 14] | pest or weed control at 70 g/ha [2, 14] | pest or weed control at 140 g/ha [2, 14]
188 to 190 °C: melting point
60 to 74%: pest or weed control at 140 g/ha [1, 4] | pest or weed control at 70 g/ha [1, 6] | pest or weed control at 140 g/ha [1, 6]

COC(=O)c1nc(-c2ccc3c(cnn3C)c2)c(F)c(N)c1Cl [Compound 4.03]
75 to 84%: pest or weed control at 140 g/ha [1, 4] | pest or weed control at 140 g/ha [1, 7] | pest or weed control at 70 g/ha [2, 10] | pest or weed control at 140 g/ha [2, 10]
45 to 59%: pest or weed control at 70 g/ha [1, 4] | pest or weed control at 35 g/ha [1, 7] | pest or weed control at 70 g/ha [1, 8]
95 to 100%: pest or weed control at 35 g/ha [1, 6] | pest or weed control at 70 g/ha [1, 6] | pest or weed control at 140 g/ha [1, 6]
0 to 29%: pest or weed control at 35 g/ha [1, 3] | pest or weed control at 70 g/ha [1, 3] | pest or weed control at 140 g/ha [1, 3] | pest or weed control at 35 g/ha [1, 4] | pest or weed control at 35 g/ha [1, 5] | pest or weed control at 70 g/ha [1, 5] | pest or weed control at 140 g/ha [1, 5] | pest or weed control at 35 g/ha [1, 8] | pest or weed control at 35 g/ha [2, 9] | pest or weed control at 70 g/ha [2, 9] | pest or weed control at 140 g/ha [2, 9] | pest or weed control at 35 g/ha [2, 11] | pest or weed control at 70 g/ha [2, 11] | pest or weed control at 140 g/ha [2, 11] | pest or weed control at 35 g/ha [2, 13] | pest or weed control at 70 g/ha [2, 13] | pest or weed control at 140 g/ha [2, 13] | pest or weed control at 35 g/ha [2, 14] | pest or weed control at 70 g/ha [2, 14] | pest or weed control at 140 g/ha [2, 14]
156 to 159 °C: melting point
60 to 74%: pest or weed control at 70 g/ha [1, 7] | pest or weed control at 140 g/ha [1, 8] | pest or weed control at 35 g/ha [2, 10]
